Results reported in patent US8580794B2 (AbbVie Inc., priority 2009, dated 2013).
pKi: −log10 of the molar value. Read-outs that look alike come from different tables or passages of the source.

Target: GST-Bc1-2 (Homo sapiens, UniProt P10415)
Assay: Time Resolved-Fluorescence Resonance Energy Transfer (TR-FRET) Bcl-2 binding assay with F-Bak peptide probe
[1] = GST-Bcl-2 1 nM, F-Bak probe 100 nM, Tb-anti-GST 1 nM, '<' = below limit of detection, read-out: TR-FRET Bcl-2 Binding Ki

Sequence of GST-Bc1-2 (P10415 whole entry): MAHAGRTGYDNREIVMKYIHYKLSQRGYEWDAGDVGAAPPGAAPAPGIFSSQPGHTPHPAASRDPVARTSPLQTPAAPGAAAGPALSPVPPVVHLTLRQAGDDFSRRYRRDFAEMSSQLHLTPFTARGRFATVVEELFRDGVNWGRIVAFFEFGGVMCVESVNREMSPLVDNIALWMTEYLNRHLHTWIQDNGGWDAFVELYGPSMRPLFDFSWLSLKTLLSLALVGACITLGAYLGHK

Structure (SMILES)	pKi [1]	pKi (TR-FRET Bcl-2 Binding Ki)	pKi (read-out: Bcl-2 FRET ki)
C#Cc1cc(S(=O)(=O)NC(=O)c2ccc(N3CCN(CC4=C(c5ccc(Cl)cc5)CC(C)(C)CC4)CC3)cc2Oc2cnc3[nH]ccc3c2)cnc1OCC1CCOCC1 [Example 69, 4-(4-{[2-(4-chlorophenyl)-4,4-dimethylcyclohex-1-en-1-yl]methyl}piperazin-1-yl)-N-{[5-ethynyl-6-(tetrahydro-2H-pyran-4-ylmethoxy)pyridin-3-yl]sulfonyl}-2-(1H-pyrrolo[2,3-b]pyridin-5-yloxy)benzamide]	8.94	–	–
CC1(C)CCC(CN2CCN(c3ccc(C(=O)NS(=O)(=O)c4ccc5nc[nH]c(=O)c5c4)c(Oc4cnc5[nH]ccc5c4)c3)CC2)=C(c2ccc(Cl)cc2)C1 [Example 70, 4-(4-{[2-(4-chlorophenyl)-4,4-dimethylcyclohex-1-en-1-yl]methyl}piperazin-1-yl)-N-[(4-oxo-3,4-dihydroquinazolin-6-yl)sulfonyl]-2-(1H-pyrrolo[2,3-b]pyridin-5-yloxy)benzamide]	8.40	–	–
O=C(NS(=O)(=O)c1ccc(N[C@H]2CC[C@H](N3CCOCC3)CC2)c([N+](=O)[O-])c1)c1ccc(N2CCN(CC3=C(c4ccc(Cl)cc4)CCC4(CCCC4)C3)CC2)cc1Oc1cnc2[nH]ccc2c1 [Example 71, Trans-4-(4-{[8-(4-chlorophenyl)spiro[4.5]dec-7-en-7-yl]methyl}piperazin-1-yl)-N-({4-[(4-morpholin-4-ylcyclohexyl)amino]-3-nitrophenyl}sulfonyl)-2-(1H-pyrrolo[2,3-b]pyridin-5-yloxy)benzamide]	11.00	–	–
CO[C@H]1CC[C@@H](CNc2ccc(S(=O)(=O)NC(=O)c3ccc(N4CCN(CC5=C(c6ccc(Cl)cc6)CC(C)(C)OC5)CC4)cc3Oc3cnc4[nH]ccc4c3)cc2[N+](=O)[O-])CC1 [Example 72, Cis-4-(4-{[4-(4-chlorophenyl)-6,6-dimethyl-5,6-dihydro-2H-pyran-3-yl]methyl}piperazin-1-yl)-N-[(4-{[(4-methoxycyclohexyl)methyl]amino}-3-nitrophenyl)sulfonyl]-2-(1H-pyrrolo[2,3-b]pyridin-5-yloxy)benzamide]	> 11.00	–	–
O=C(NS(=O)(=O)c1ccc(OCC2(F)CCOCC2)c([N+](=O)[O-])c1)c1ccc(N2CCN(CC3=C(c4ccc(Cl)cc4)CCC4(CCCC4)C3)CC2)cc1Oc1cnc2[nH]ccc2c1 [Example 73, 4-(4-{[8-(4-chlorophenyl)spiro[4.5]dec-7-en-7-yl]methyl}piperazin-1-yl)-N-({4-[(4-fluorotetrahydro-2H-pyran-4-yl)methoxy]-3-nitrophenyl}sulfonyl)-2-(1H-pyrrolo[2,3-b]pyridin-5-yloxy)benzamide]	> 11.00	–	–
CC1(C)CCC(c2ccc(Cl)cc2)=C(CN2CCN(c3ccc(C(=O)NS(=O)(=O)c4ccc(NCC5CCOCC5)c([N+](=O)[O-])c4)c(Oc4cnc5[nH]ccc5c4)c3)CC2)C1 [Example 75, 4-(4-{[2-(4-chlorophenyl)-5,5-dimethylcyclohex-1-en-1-yl]methyl}piperazin-1-yl)-N-({3-nitro-4-[(tetrahydro-2H-pyran-4-ylmethyl)amino]phenyl}sulfonyl)-2-(1H-pyrrolo[2,3-b]pyridin-5-yloxy)benzamide]	> 11.00	–	–
CC1(C)CCC(c2ccc(Cl)cc2)=C(CN2CCN(c3ccc(C(=O)NS(=O)(=O)c4cnc(OCC5CCOCC5)c(C#N)c4)c(Oc4cnc5[nH]ccc5c4)c3)CC2)C1 [Example 76, 4-(4-{[2-(4-chlorophenyl)-5,5-dimethylcyclohex-1-en-1-yl]methyl}piperazin-1-yl)-N-{[5-cyano-6-(tetrahydro-2H-pyran-4-ylmethoxy)pyridin-3-yl]sulfonyl}-2-(1H-pyrrolo[2,3-b]pyridin-5-yloxy)benzamide]	9.71	–	–
CC1(C)CCC(CN2CCN(c3ccc(C(=O)NS(=O)(=O)c4ccc(OCC5COCCN5C(=O)OC(C)(C)C)c([N+](=O)[O-])c4)c(Oc4cnc5[nH]ccc5c4)c3)CC2)=C(c2ccc(Cl)cc2)C1 (centres unmarked) [Example 77, tert-butyl 3-{[4-({[4-(4-{[2-(4-chlorophenyl)-4,4-dimethylcyclohex-1-en-1-yl]methyl}piperazin-1-yl)-2-(1H-pyrrolo[2,3-b]pyridin-5-yloxy)benzoyl]amino}sulfonyl)-2-nitrophenoxy]methyl}morpholine-4-carboxylate]	9.67	–	–
CC1(C)CCC(CN2CCN(c3ccc(C(=O)NS(=O)(=O)c4ccc(OCC5COCCN5)c([N+](=O)[O-])c4)c(Oc4cnc5[nH]ccc5c4)c3)CC2)=C(c2ccc(Cl)cc2)C1 (centres unmarked) [Example 78, 4-(4-{[2-(4-chlorophenyl)-4,4-dimethylcyclohex-1-en-1-yl]methyl}piperazin-1-yl)-N-{[4-(morpholin-3-ylmethoxy)-3-nitrophenyl]sulfonyl}-2-(1H-pyrrolo[2,3-b]pyridin-5-yloxy)benzamide]	> 11.00	–	–
O=C(NS(=O)(=O)c1ccc(NCC2CCOCC2)c([N+](=O)[O-])c1)c1ccc(N2CCN(CC3=C(c4ccc(Cl)cc4)CCC4(CCCC4)C3)CC2)cc1Oc1cnc2[nH]ccc2c1 [Example 79, 4-(4-{[8-(4-chlorophenyl)spiro[4.5]dec-7-en-7-yl]methyl}piperazin-1-yl)-N-({3-nitro-4-[(tetrahydro-2H-pyran-4-ylmethyl)amino]phenyl}sulfonyl)-2-(1H-pyrrolo[2,3-b]pyridin-5-yloxy)benzamide]	> 11.00	–	–
CC1(C)CCC(CN2CCN(c3ccc(C(=O)NS(=O)(=O)c4ccc(NC5CCN(S(C)(=O)=O)CC5)c([N+](=O)[O-])c4)c(Oc4cnc5[nH]ccc5c4)c3)CC2)=C(c2ccc(Cl)cc2)C1 [Example 80, 4-(4-{[2-(4-chlorophenyl)-4,4-dimethylcyclohex-1-en-1-yl]methyl}piperazin-1-yl)-N-[(4-{[1-(methylsulfonyl)piperidin-4-yl]amino}-3-nitrophenyl)sulfonyl]-2-(1H-pyrrolo[2,3-b]pyridin-5-yloxy)benzamide]	> 11.00	–	–
CC1(C)CCC(CN2CCN(c3ccc(C(=O)NS(=O)(=O)c4ccc(NC5CCS(=O)(=O)CC5)c([N+](=O)[O-])c4)c(Oc4cnc5[nH]ccc5c4)c3)CC2)=C(c2ccc(Cl)cc2)C1 [Example 81, 4-(4-{[2-(4-chlorophenyl)-4,4-dimethylcyclohex-1-en-1-yl]methyl}piperazin-1-yl)-N-({4-[(1,1-dioxidotetrahydro-2H-thiopyran-4-yl)amino]-3-nitrophenyl}sulfonyl)-2-(1H-pyrrolo[2,3-b]pyridin-5-yloxy)benzamide]	> 11.00	–	–
CC1(C)CCC(CN2CCN(c3ccc(C(=O)NS(=O)(=O)c4ccc(Cl)c([N+](=O)[O-])c4)c(Oc4cnc5[nH]ccc5c4)c3)CC2)=C(c2ccc(Cl)cc2)C1 [Example 82, N-[(4-chloro-3-nitrophenyl)sulfonyl]-4-(4-{[2-(4-chlorophenyl)-4,4-dimethylcyclohex-1-en-1-yl]methyl}piperazin-1-yl)-2-(1H-pyrrolo[2,3-b]pyridin-5-yloxy)benzamide]	9.48	–	–
CC1(C)CCC(CN2CCN(c3ccc(C(=O)NS(=O)(=O)c4ccc(NC5CCN(CC(F)(F)F)CC5)c([N+](=O)[O-])c4)c(Oc4cnc5[nH]ccc5c4)c3)CC2)=C(c2ccc(Cl)cc2)C1 [Example 83, 4-(4-{[2-(4-chlorophenyl)-4,4-dimethylcyclohex-1-en-1-yl]methyl}piperazin-1-yl)-N-[(3-nitro-4-{[1-(2,2,2-trifluoroethyl)piperidin-4-yl]amino}phenyl)sulfonyl]-2-(1H-pyrrolo[2,3-b]pyridin-5-yloxy)benzamide]	10.15	–	–
CC1(C)CCC(CN2CCN(c3ccc(C(=O)NS(=O)(=O)c4cnc(OC5CCN(C6CCOCC6)CC5)c(C#N)c4)c(Oc4cnc5[nH]ccc5c4)c3)CC2)=C(c2ccc(Cl)cc2)C1 [Example 84, 4-(4-{[2-(4-chlorophenyl)-4,4-dimethylcyclohex-1-en-1-yl]methyl}piperazin-1-yl)-N-({5-cyano-6-[(1-tetrahydro-2H-pyran-4-ylpiperidin-4-yl)oxy]pyridin-3-yl}sulfonyl)-2-(1H-pyrrolo[2,3-b]pyridin-5-yloxy)benzamide]	9.91	–	–
CC(C)c1cc(S(=O)(=O)NC(=O)c2ccc(N3CCN(CC4=C(c5ccc(Cl)cc5)CC(C)(C)CC4)CC3)cc2Oc2cnc3[nH]ccc3c2)cnc1OCC1CCOCC1 [Example 85, 4-(4-{[2-(4-chlorophenyl)-4,4-dimethylcyclohex-1-en-1-yl]methyl}piperazin-1-yl)-N-{[5-isopropyl-6-(tetrahydro-2H-pyran-4-ylmethoxy)pyridin-3-yl]sulfonyl}-2-(1H-pyrrolo[2,3-b]pyridin-5-yloxy)benzamide]	9.41	–	–
CC1(C)CCC(CN2CCN(c3ccc(C(=O)NS(=O)(=O)c4cc(F)c(NCC5CCOCC5)c(Cl)c4)c(Oc4cnc5[nH]ccc5c4)c3)CC2)=C(c2ccc(Cl)cc2)C1 [Example 86, N-({3-chloro-5-fluoro-4-[(tetrahydro-2H-pyran-4-ylmethyl)amino]phenyl}sulfonyl)-4-(4-{[2-(4-chlorophenyl)-4,4-dimethylcyclohex-1-en-1-yl]methyl}piperazin-1-yl)-2-(1H-pyrrolo[2,3-b]pyridin-5-yloxy)benzamide]	9.30	–	–
O=C(NS(=O)(=O)c1ccc(NCCCN2CCOCC2)c([N+](=O)[O-])c1)c1ccc(N2CCN(Cc3ccccc3-c3ccc(Cl)cc3)CC2)cc1Oc1ccc2[nH]ccc2c1 [Example 88, 4-{4-[(4′-chloro-1,1′-biphenyl-2-yl)methyl]piperazin-1-yl}-2-(1H-indol-5-yloxy)-N-({4-[(3-morpholin-4-ylpropyl)amino]-3-nitrophenyl}sulfonyl)benzamide]	9.17	–	–
CN1CCC(Nc2ccc(S(=O)(=O)NC(=O)c3ccc(N4CCN(CC5=C(c6ccc(Cl)cc6)CC(C)(C)CC5)CC4)cc3Oc3ccc4[nH]ccc4c3)cc2[N+](=O)[O-])CC1 [Example 90, 4-(4-{[2-(4-chlorophenyl)-4,4-dimethylcyclohex-1-en-1-yl]methyl}piperazin-1-yl)-2-(1H-indol-5-yloxy)-N-({4-[(1-methylpiperidin-4-yl)amino]-3-nitrophenyl}sulfonyl)benzamide]	–	10.89	10.89
